Experimental data reported in US9598433B2, “Hepatitis C virus inhibitors” (BRISTOL-MYERS SQUIBB COMPANY, priority 2012, dated 2017).
Where two headings read alike, the source gives them in different places.

Legend:
[1] = rcm bond, 15-membered ring, Hoveyda-Grubbs II (5 mol%), DCE, 80.0 °C
[2] = tested on: HCV genotype 1a (H77 strain) replicon in HUH-7 cells; experiment: HCV replicon luciferase reporter assay, genotype 1a; assay type: cell-based; conditions: Hepatitis C virus, 72 h, genotype 1a replicon, 3 days incubation, read-out: LE_1a (EC50, range)
Summary of the method: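 Stable HUH-7 line carrying luciferase-reporter genotype 1a (H77) replicon with adaptive NS3 P1496L and NS5A S2204I mutations; 3.0×10^3 cells/well in 4% FCS, 0.5% DMSO, twenty-point 3-fold titration, 3 days at 37 °C. Renilla luminescence with 7.5 μM EnduRen; EC50 by four-parameter logistic fit; CC50 by multiplexed Cell Titer-Blue.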

[3] = tested on: HCV genotype 1b (Con1) replicon in HUH-7 cells; experiment: HCV replicon luciferase reporter assay, genotype 1b; assay type: cell-based; conditions: Hepatitis C virus, 72 h, genotype 1b replicon, 3 days incubation, read-out: LE_1b (EC50, range)
Summary of the method: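 Replication was read as Renilla luciferase signal, using 7.5 μM EnduRen substrate with a 2-h incubation at 37 °C. The signal came from a HUH-7 line constitutively expressing a luciferase-tagged 1b (Con1) replicon carrying S1179I.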

[4] = from C=CCC[C@@H](C)O[C@@H](C)C(NC(=O)OC(C)(C)C)C(=O)N1C[C@H](Oc2nccc3cc(OC)ccc23)C[C@H]1C(=O)N[C@]1(C(=O)NS(=O)(=O)C2(C)CC2)C[C@H]1C=C; rcm bond; 15-membered ring; Hoveyda-Grubbs II (5 mol%); DCE; 7.2 mM; 80.0 °C; 2.0 h

Compound: CC[C@@H]1OCCC/C=C\[C@@H]2C[C@@]2(C(=O)NS(=O)(=O)C2(C)CC2)NC(=O)[C@@H]2C[C@@H](O)CN2C(=O)[C@H]1NC(=O)OC(C)(C)C
- ring closure, isolated yield ([1]; from C=CCCCO[C@@H](CC)[C@H](NC(=O)OC(C)(C)C)C(=O)N1C[C@H](O)C[C@H]1C(=O)N[C@]1(C(=O)NS(=O)(=O)C2(C)CC2)C[C@H]1C=C, 7.5 mM, 74.0 h): 22%

Compound: CC[C@@H]1O[C@H](C)CC/C=C\[C@@H]2C[C@@]2(C(=O)NS(=O)(=O)C2(CF)CC2)NC(=O)[C@@H]2C[C@@H](O)CN2C(=O)[C@H]1NC(=O)OC(C)(C)C
- ring closure, isolated yield ([1]; from C=CCC[C@@H](C)O[C@@H](CC)[C@H](NC(=O)OC(C)(C)C)C(=O)N1C[C@H](O)C[C@H]1C(=O)N[C@]1(C(=O)NS(=O)(=O)C2(CF)CC2)C[C@H]1C=C, 9.2 mM, 16.0 h): 22%

Compound: CC[C@@H]1O[C@H](C)CC/C=C\[C@@H]2C[C@@]2(C(=O)NS(=O)(=O)C2CC2)NC(=O)[C@@H]2C[C@@H](O)CN2C(=O)[C@H]1NC(=O)OC(C)(C)C
- ring closure, isolated yield ([1]; from C=CCC[C@@H](C)O[C@@H](CC)[C@H](NC(=O)OC(C)(C)C)C(=O)N1C[C@H](O)C[C@H]1C(=O)N[C@]1(C(=O)NS(=O)(=O)C2CC2)C[C@H]1C=C, 9.8 mM, 4.0 h): 54%

Compound: CC[C@@H]1O[C@H](C)CCC=C[C@@H]2C[C@@]2(C(=O)NS(=O)(=O)C2(C)CC2)NC(=O)[C@@H]2C[C@@H](O)CN2C(=O)[C@H]1NC(=O)OC(C)(C)C
- ring closure, isolated yield ([1]; from C=CCC[C@@H](C)O[C@@H](CC)[C@H](NC(=O)OC(C)(C)C)C(=O)N1C[C@H](O)C[C@H]1C(=O)N[C@]1(C(=O)NS(=O)(=O)C2(C)CC2)C[C@H]1C=C, 8.7 mM, 74.0 h, 5 steps): 10%

Compound: C[C@@H]1CC/C=C\[C@@H]2C[C@@]2(C(=O)NS(=O)(=O)C2(C)CC2)NC(=O)[C@@H]2C[C@@H](O)CN2C(=O)[C@@H](NC(=O)OC(C)(C)C)[C@H](C)O1
- ring closure, isolated yield ([1]; from C=CCC[C@@H](C)O[C@@H](C)[C@H](NC(=O)OC(C)(C)C)C(=O)N1C[C@H](O)C[C@H]1C(=O)N[C@]1(C(=O)NS(=O)(=O)C2(C)CC2)C[C@H]1C=C, 8.0 mM, 2.0 h): 24%

Compound: COc1ccc2c(O[C@@H]3C[C@H]4C(=O)N[C@]5(C(=O)NS(=O)(=O)C6(C)CC6)C[C@H]5/C=C\CC[C@@H](C)O[C@@H](C)[C@H](NC(=O)OC(C)(C)C)C(=O)N4C3)nccc2c1 [Compound 2001, tert-butyl ((2R,6S,7S,9R,13aS,14aR,16aS,Z)-2-((6-methoxyisoquinolin-1-yl)oxy)-7,9-dimethyl-14a-(((1-methylcyclopropyl)sulfonyl)carbamoyl)-5,16-dioxo-2,3,5,6,7,9,10,11,13a,14,14a,15,16,16a-tetradecahydro-1H-cyclopropa[i]pyrrolo[1,2-e][1,5,8]oxadiazacyclopentadecin-6-yl)carbamate]
- EC50 [2]: 1.01 to 5 nM
- EC50 [3]: 1.01 to 5 nM
- ring closure, yield after HPLC [4]: 30%

Compound: CC[C@@H]1O[C@H](C)CC/C=C\[C@@H]2C[C@@]2(C(=O)NS(=O)(=O)C2(C)CC2)NC(=O)[C@@H]2C[C@@H](Oc3nc(-c4ccc(OC(C)C)cn4)cc4cc(OC)ccc34)CN2C(=O)[C@H]1NC(=O)OC(C)(C)C(F)(F)F [Compound 2612, 1,1,1-trifluoro-2-methylpropan-2-yl ((2R,6S,7S,9R,13aS,14aR,16aS,Z)-7-ethyl-2-((3-(5-isopropoxypyridin-2-yl)-6-methoxyisoquinolin-1-yl)oxy)-9-methyl-14a-(((1-methylcyclopropyl)sulfonyl)carbamoyl)-5,16-dioxo-2,3,5,6,7,9,10,11,13a,14,14a,15,16,16a-tetradecahydro-1H-cyclopropa[i]pyrrolo[1,2-e][1,5,8]oxadiazacyclopentadecin-6-yl)carbamate]
- EC50 [2]: 1.01 to 5 nM
- EC50 [3]: 1.01 to 5 nM

Compound: CC[C@@H]1O[C@H](C)CC/C=C\[C@@H]2C[C@@]2(C(=O)NS(=O)(=O)C2(C)CC2)NC(=O)[C@@H]2C[C@@H](Oc3nc(-c4ccc(OC(C)C)cn4)cc4cc(OC)ccc34)CN2C(=O)[C@H]1NC(=O)OC(C)(C)C(C)(F)F [Compound 2613, 3,3-difluoro-2-methylbutan-2-yl ((2R,6S,7S,9R,13aS,14aR,16aS,Z)-7-ethyl-2-((3-(5-isopropoxypyridin-2-yl)-6-methoxyisoquinolin-1-yl)oxy)-9-methyl-14a-(((1-methylcyclopropyl)sulfonyl)carbamoyl)-5,16-dioxo-2,3,5,6,7,9,10,11,13a,14,14a,15,16,16a-tetradecahydro-1H-cyclopropa[i]pyrrolo[1,2-e][1,5,8]oxadiazacyclopentadecin-6-yl)carbamate]
- EC50 [2]: 1.01 to 5 nM
- EC50 [3]: 0.1 to 0.5 nM

Compound: CCOc1cc2ccnc(O[C@@H]3C[C@H]4C(=O)N[C@]5(C(=O)NS(=O)(=O)C6(C)CC6)C[C@H]5/C=C\CC[C@@H](C)O[C@@H](CC)[C@H](NC(=O)OC(C)(C)C(F)F)C(=O)N4C3)c2cc1F [Compound 2615, 1,1-difluoro-2-methylpropan-2-yl ((2R,6S,7S,9R,13 aS,14aR,16aS,Z)-2-((6-ethoxy-7-fluoroisoquinolin-1-yl)oxy)-7-ethyl-9-methyl-14a-(((1-methylcyclopropyl)sulfonyl)carbamoyl)-5,16-dioxo-2,3,5,6,7,9,10,11,13a,14,14a,15,16,16a-tetradecahydro-1H-cyclopropa[i]pyrrolo[1,2-e][1,5,8]oxadiazacyclopentadecin-6-yl)carbamate]
- EC50 [2]: 0.51 to 1 nM
- EC50 [3]: 0.51 to 1 nM

Compound: CC[C@@H]1O[C@H](C)CC/C=C\[C@@H]2C[C@@]2(C(=O)NS(=O)(=O)C2(C)CC2)NC(=O)[C@@H]2C[C@@H](Oc3nccc4cc(OC)c(F)cc34)CN2C(=O)[C@H]1NC(=O)OC(C)(C)C(F)F [Compound 2616]
- EC50 [2]: 1.01 to 5 nM
- EC50 [3]: 1.01 to 5 nM

Compound: CC[C@@H]1O[C@H](C)CC/C=C\[C@@H]2C[C@@]2(C(=O)NS(=O)(=O)C2(C)CC2)NC(=O)[C@@H]2C[C@@H](Oc3ncc(OC)c4ccc(F)cc34)CN2C(=O)[C@H]1NC(=O)OC(C)(C)C(F)F [Compound 2617, 1,1-difluoro-2-methylpropan-2-yl ((2R,6S,7S,9R,13aS,14aR,16aS,Z)-7-ethyl-2-((7-fluoro-4-methoxyisoquinolin-1-yl)oxy)-9-methyl-14a-(((1-methylcyclopropyl)sulfonyl)carbamoyl)-5,16-dioxo-2,3,5,6,7,9,10,11,13a,14,14a,15,16,16a-tetradecahydro-1H-cyclopropa[i]pyrrolo[1,2-e][1,5,8]oxadiazacyclopentadecin-6-yl)carbamate]
- EC50 [2]: 0.1 to 0.5 nM
- EC50 [3]: 0.51 to 1 nM

Compound: CC[C@@H]1O[C@H](C)CC/C=C\[C@@H]2C[C@@]2(C(=O)NS(=O)(=O)C2(C)CC2)NC(=O)[C@@H]2C[C@@H](Oc3ncc(OC)c4ccccc34)CN2C(=O)[C@H]1NC(=O)OC(C)(C)C(F)F [Compound 2618, 1,1-difluoro-2-methylpropan-2-yl ((2R,6S,7S,9R,13aS,14aR,16aS,Z)-7-ethyl-2-((4-methoxyisoquinolin-1-yl)oxy)-9-methyl-14a-(((1-methylcyclopropyl)sulfonyl)carbamoyl)-5,16-dioxo-2,3,5,6,7,9,10,11,13a,14,14a,15,16,16a-tetradecahydro-1H-cyclopropa[i]pyrrolo[1,2-e][1,5,8]oxadiazacyclopentadecin-6-yl)carbamate]
- EC50 [2]: 0.1 to 0.5 nM
- EC50 [3]: 0.1 to 0.5 nM
